According to patent publication US20240166702A1, “COMPOSITIONS AND METHODS FOR TREATING BREAST CANCER” (Arizona Board of Regents on Behalf of The University of …, priority 2021, published 2024):

Experiments:
MDA-MB-468 cells = assay type: cell-based, human; conditions: MDA-MB-468, 3 days, MTT assay
Method: A. Peptide sequence alignment of modified and stabilized peptides (−) indicates conserved residues, (/) indicates a deleted residue. Modified residues used for staples are (S)-2-(((9H-flouren-9-yl) methoxy) caronylamino)-2-methyl-hept-6-enoic acid (5) and (R)-2-(((9H-flouren-9-yl) methoxy) caronylamino)-2-methyl-dec-9-enoic acid (8). PTD4=Protein Transduction Domain. Ac=acetylation of 5′ end and NH2=amidation of 3′ end. B. MDA-MB-468 cells were treated with 10 μM of the indicated peptide for 3 days. Cell viability was measured using an MTT assay. Vehicle control represents 100%. C. A predicted peptide structure of SNX1.3 was generated using SWISSMODEL with negative (blue) and positive (red) residues highlighted.
(§1) B. MDA-MD-468 cells were transduced with an IPTG inducible shEGFR targeted against the 3′ UTR of EGFR. These cells were incubated with IPTG for the indicated number of days and lysates were generated to confirm knock down of EGFR. C. In tandem with B., cells were plated and incubated +/−IPTG for 2 days prior to drug treatment. […] After 5 days of IPTG and 3 days of peptide treatment viability was measured using an MTT assay.
Predicted peptide structure including negatively (blue) and positively (red) charged residues was used to guide the modifications (FIG. 2C).

BT20 cells [1] = assay type: cell-based, human
Method: as §1
To investigate rt-EGFR, the role of the Sorting Nexins to regulate EGFR trafficking to the lysosome for degradation was investigated. To determine if SNX1 domains could be therapeutically mimicked, three SNX1-based peptides were synthesized, each of which was generated in tandem with a Cell Penetrating Peptide domain (PTD-4) to allow for intracellular penetration^19 (SNX1.1, 1.2 and 1.3, FIG. 2A). The ability of each peptide to reduce cell survival in the triple negative breast cancer cell line BT20 was evaluated.
(§2) EGFR activity is known to promote the activity of other RTKs, including those in the EGFR family (HER2, HER3 and HER4) and the c-Met receptor (Puri and Salgia 2008; Linklater et al. 2016). Therefore, the ability of SNX1.3 to inhibit 2D migration was next evaluated, both in response to EGF as well as other migration-inducing ligands. […] Cells were plated on plastic and allowed to migrate into an artificial wound over 12 hours. […] To determine if this inhibitory effect was restricted to EGF-induced migration, the ability of SNX1.3 to impact neuregulin (NRG1) was also tested and hepatic growth factor (HGF)-induced migration. NRG is the ligand for HER3 and HER4, and HGF the ligand for the c-Met receptor, both of which are receptor tyrosine kinases. In addition, soluble hyaluronic acid (HA)-induced migration, the ligand for CD44, was also tested [a non-kinase membrane receptor that induces migration (Louderbough, Lopez, and Schroeder 2010)]. […] Note that all receptors undergo endocytosis, with the RTKs primarily undergoing clathrin-dependent endocytosis, while CD44 endocytosis is clathrin-independent (Dutta and Donaldson 2015).

MCF10A cells = assay type: cell-based
WAP-TGFα tumors [2] = assay: NanoString analysis of WAP-TGFα tumors (PanCancer IO 360 Panel); assay type: in vivo, mouse; conditions: WAP-TGFα tumors, found by NanoString
Method: (§3) A. Tumors (n=6 each treatment) from WAP-TGF mice as described in FIG. 1 were embedded and analyzed by NanoString. […] C. Tumors were dissected, lysed, and analyzed for apoptosis by probing for cleaved PARP and PDL1 expression.
C. WAP-TGFα tumors treated with either SNX1.3 or cPTD4 were analyzed for NK cells using an anti-NKp46 antibody. Inset is 20×.
(§4) Due to the increased leukocyte infiltration identified by histology of cSNX1.3-treated WAP-TGFα mice, NanoString analysis was performed using a panel that identifies alterations in immune regulators through localized analysis of transcript expression (PanCancer IO 360 Panel). […] These include several immune/inflammatory genes (such as CD2, TLR, CD28, H2-M3, Ly6C1, cytokines, and chemokines) as well as genes that could impact the metastatic potential of the microenvironment (including collagen 11A1 and MM P12). NanoString bioinformatics analysis further identified that these changes could be due to an increase in Cytotoxic T lymphocytes (CTLs) in cSNX1.3-treated samples compared to PTD4 (FIG. 8B). […] Therefore, tumor lysates were prepared and evaluated for apoptosis and a loss of the negative immune checkpoint receptor PDL1 (FIG. 8C). […] These changes could indicate an alteration from an immune-suppressive to an immune-surveilling microenvironment.

BT20 cells [3] = assay: 2D cell migration into an artificial wound, BT20 cells; assay type: cell-based, human
Method: Area migrated was measured with ImageJ.
as §2

WAP-TGFα tumors [4] = assay: Histology and protein lysate analysis of treated WAP-TGFα tumors; assay type: in vivo, mouse
Description: Mice were bred continuously to induce transgene expression and palpated weekly for tumor formation. […] A. Changes in tumor size from entry into study until end of study are shown for each individual tumor, (*) indicate tumors that entered the study at size greater than 500 mm^3, all other tumors entered the study at ˜100 mm^3. B. a Kaplan-Meier survival curve was generated showing when mice were sacrificed by either reaching tumor burden (2000 mm^3) or the end of the study (p=0.0002). C. Upon sacrifice tumors were harvested and fixed in 10% formalin and embedded in paraffin. Slides were stained with hematoxylin and eosin and imaged at 20×. D. Protein lysates were generated from tumors upon sacrifice and probed for the indicated proteins.
as §3
At the end of the study, mice were sacrificed and tissues were collected and fixed in 10% buffered formalin or homogenized in tissue lysis buffer. Tissues were sectioned and evaluated for changes to tissue morphology in response to peptide treatment (FIG. 3C). […] Representative tumors from the PARP-cleavage positive (cSNX1.3-treated) and negative (cPTD4-treated) are shown (FIG. 3C).
as §4

Molecule	inhibition of cell survival, compared with Sapitinib (MDA-MB-468 cells)	inhibition of cell survival, compared with Sapitinib (BT20 cells [1]; BT20, 3 days, MTT assay)	impact on normal immortalized cells (MCF10A cells)	growth of BT20 cells (BT20 cells [1]; first screen of SNX1-based peptides)	impact on viability via MTT (BT20 cells [1]; in less than 24 hours, data not shown)	secretion of IL33 (WAP-TGFα tumors [2])	soluble hyaluronic acid (HA)-induced migration (CD44) (BT20 cells [3]; BT20, 12 hours, ligand for CD44)	neuregulin (NRG1) induced migration (BT20 cells [3]; BT20, 12 hours, ligand for HER3 and HER4)	hepatic growth factor (HGF)-induced migration (BT20 cells [3]; BT20, 12 hours, ligand for c-Met receptor)	EGF induced migration (BT20 cells [3]; BT20 on plastic, 12 hours)	infiltration of cytotoxic T lymphocytes and neutrophils in tumors (WAP-TGFα tumors [4]; compared to control mice)	overall PDL1 expression in tumors (WAP-TGFα tumors [4]; tumor lysates)
CNC(=O)CN1CCC(Oc2cc3c(Nc4cccc(Cl)c4F)ncnc3cc2OC)CC1 [Sapitinib, reference compound]	inhibited cell survival	inhibited cell survival	more effective at inhibiting cell growth in normal cells than in cancer cells									
YARAAARQARAKNHVIKYLETLLYSQQQLAKYWEAFL [SNX1.3]				inhibits the growth	no impact on viability	induced	did not block	inhibited migration	inhibited migration	no migration was observed	increased infiltration	decrease
